Measured values as given in patent US20230158084A1, “PROBIOTICS, METABOLITES, AND USES THEREOF” (California Institute of Technology, priority 2018, published 2023).

System: BTBR mice
Assay: Open field testing (OFT), BTBR mice given metabolites
Format: in vivo, mouse
Details: BTBR offspring; 10 mM in drinking water before mating and throughout lifetime (prenatal administration); vs untreated vehicle controls
Procedure: FIGS. 5A-D are a series of drawings illustrating that differential metabolites impact ASD-relevant behaviors in SPF mice in accordance with some embodiments herein. FIG. 5A: The abundance of select metabolites in the offspring microbiome is correlated with behavior of male offspring. Spearman correlation between the microbiome and mouse behavior, by donor (See FIGS. 1A-0). […] Color scale denotes Spearman ρ. […] Groups of mice were orally administered 10 mM Taurine or 5AV in drinking water before mating, and throughout their lifetime. Offspring were tested by marble burying, direct social interaction, and open field tests, and compared to untreated vehicle controls. Results are aggregated from 2 independent experiments. NControl=42, […]=52, NTaurine=36. […] Open field testing (OFT)-OFT, as a measure for locomotion and anxiety, was performed in 50×50 cm^2 white plexiglas arenas, recorded using an overhead camera, and tracked and analyzed using the EthoVision XT 10 software package (Noldus Information Technology). […] The distance traveled, as well as the number of entries and time spend in a 30×30 cm^2 center square, were analyzed by the EthoVision software. […] As such, it will be appreciated that at a given stage of development, some molecules may readily pass through the blood brain barrier, while others may not.

NCCS(=O)(=O)O [taurine]
anxiety, as measured by center duration in the OFT: reduces anxiety
